From PubChem BioAssay (NCI) come the findings set out here.

SMILES strings stand for the structures.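 These data come from cells grown in 96-well plates and exposed to compound for 48 hours at five concentrations. Abbreviation: GI50, concentration required for 50% inhibition of growth. At the TGI there is no net growth.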

Some test systems named below: A498 renal; HCC-2998 colon; HOP-62 NSCLC; MALME-3M melanoma; MCF7 breast; SF-268 CNS; SN12C renal; SR leukemia.
What all share (experiment): growth of human tumour cells (NCI), 48 h

Turning to `CN(Cc1cccc(Cl)c1)c1ccc(CO)c(Cl)c1`, the GI50 in the assay with A498 renal was 0.041 µM; with HCC-2998 colon, 13.7 µM; in the assay with HOP-62 NSCLC, 6.77 µM; in the assay with MALME-3M melanoma, 18.7 µM; in the assay with MCF7 breast, 1.55 µM; with SF-268 CNS it was 24 µM. The GI50 is 14.3 µM with SN12C renal and 22.4 µM with SR leukemia. In addition, the TGI in the assay on A498 renal was 0.169 µM; in the assay on HCC-2998 colon it was 34.1 µM; in the assay with HOP-62 NSCLC, 25.6 µM; in the assay with MALME-3M melanoma, 42.3 µM; in the assay on MCF7 breast, 15.8 µM; with SF-268 CNS, more than 53.5 µM. The TGI with SN12C renal was 37.2 µM; with SR leukemia, 72.8 µM.

Consider `Nc1c2c(c(O)c3c1=C(CO)C=N3)=NCCS2=O` (stereo not drawn), for which the GI50 in the assay with A498 renal is 12.2 µM; in the assay on HCC-2998 colon, 1.21 µM; in the assay with HOP-62 NSCLC, 1.86 µM; in the assay with MALME-3M melanoma, 0.253 µM; in the assay with MCF7 breast it was 0.63 µM; in the assay on SF-268 CNS, 1.24 µM. Further, the values for the GI50 in the assay with SN12C renal and with SR leukemia were 1.66 µM and 1.76 µM, respectively. The TGI in the assay with A498 renal was found to be 25.3 µM; in the assay with HCC-2998 colon, 2.81 µM; in the assay with HOP-62 NSCLC, 3.38 µM; with MALME-3M melanoma, 0.739 µM; in the assay on MCF7 breast it was 2.83 µM; in the assay with SF-268 CNS it was 3.27 µM. For the same compound, the TGI was determined as 3.57 µM in the assay with SN12C renal and 9.33 µM in the assay with SR leukemia.

For the compound `COc1ccc(-n2cc(-c3ccc(F)cc3)[nH]c2=O)cc1OC`, the GI50 with A498 renal is more than 100 µM; in the assay on HCC-2998 colon, more than 100 µM; in the assay on HOP-62 NSCLC it was 54.7 µM; with MALME-3M melanoma it was more than 100 µM; in the assay on MCF7 breast it was more than 100 µM; in the assay with SF-268 CNS it was more than 100 µM. In addition, the GI50 was 58 µM in the assay on SN12C renal and more than 100 µM in the assay on SR leukemia. In addition, the TGI in the assay with A498 renal, in the assay with HCC-2998 colon, in the assay on HOP-62 NSCLC, in the assay on MALME-3M melanoma, in the assay with MCF7 breast and in the assay on SF-268 CNS was more than 100 µM throughout. The TGI with SN12C renal and in the assay on SR leukemia was more than 100 µM throughout.

`Clc1ccc2c(NCCCNCc3ccc4c(c3)OCO4)ccnc2c1`: the GI50 is 14.4 µM with A498 renal; 2.03 µM in the assay with HCC-2998 colon; 11.5 µM in the assay on HOP-62 NSCLC; 1.86 µM in the assay on MALME-3M melanoma; 2.89 µM in the assay with MCF7 breast; 3.12 µM with SF-268 CNS. In addition, the figures for the GI50 with SN12C renal and in the assay with SR leukemia were 8.26 µM and 1.99 µM, respectively. Moreover, the TGI was found to be 27.6 µM in the assay with A498 renal; 5.25 µM with HCC-2998 colon; 24.2 µM in the assay on HOP-62 NSCLC; 3.48 µM with MALME-3M melanoma; 13 µM with MCF7 breast; 12.7 µM in the assay with SF-268 CNS. The values for the TGI in the assay on SN12C renal and with SR leukemia were 21.6 µM and 4.67 µM, respectively.

For `COc1cc2c(cc1OC)-c1c(c3ccc([N+](=O)[O-])cc3c(=O)n1CCCBr)C2=O`, the GI50 was 43.6 µM with A498 renal; 59.7 µM in the assay on HCC-2998 colon; 20.7 µM in the assay with HOP-62 NSCLC; 9.72 µM in the assay on MALME-3M melanoma; 0.0985 µM in the assay on MCF7 breast; 29 µM with SF-268 CNS. The GI50 with SN12C renal is 4.31 µM. Besides, the TGI in the assay on A498 renal is more than 100 µM; in the assay on HCC-2998 colon it was more than 100 µM; in the assay with HOP-62 NSCLC it was more than 100 µM; with MALME-3M melanoma, 81.1 µM; in the assay with MCF7 breast, more than 100 µM; in the assay with SF-268 CNS, more than 100 µM. The same compound returned a TGI with SN12C renal of more than 100 µM.

For the compound `CC/C(=C(/c1ccc(Cl)cc1)c1ccc(OCCCN(C)C)cc1)c1ccc(OC)cc1`, the GI50 with A498 renal was 5.5 µM; with HCC-2998 colon it was 8.74 µM; with HOP-62 NSCLC it was 7.76 µM; in the assay on MALME-3M melanoma it was 1.2 µM; in the assay on MCF7 breast, 1.05 µM; in the assay on SF-268 CNS it was 7.6 µM. In addition, the GI50 is 5.05 µM with SN12C renal and 0.983 µM in the assay with SR leukemia. For the same compound, the TGI with A498 renal was found to be 12.1 µM; in the assay on HCC-2998 colon it was 17.4 µM; in the assay on HOP-62 NSCLC, 15.7 µM; in the assay with MALME-3M melanoma, 2.67 µM; with MCF7 breast, 5.89 µM; in the assay on SF-268 CNS, 16.3 µM. Moreover, the results for the TGI with SN12C renal and with SR leukemia were 11.8 µM and 2.27 µM, respectively.

For the compound `Cc1cnc2n(c1=O)Cc1ccccc1CO2`, the GI50 is 19.5 µM with A498 renal; 16 µM in the assay with HCC-2998 colon; 20 µM in the assay on HOP-62 NSCLC; 19.8 µM with MALME-3M melanoma; 10.6 µM in the assay on MCF7 breast; 20.3 µM in the assay on SF-268 CNS. For the same compound, the GI50 in the assay with SN12C renal is 23.2 µM; with SR leukemia it was 9.11 µM. In addition, the TGI was 45.4 µM in the assay with A498 renal; 31.4 µM in the assay on HCC-2998 colon; 38 µM with HOP-62 NSCLC; 44.9 µM with MALME-3M melanoma; 28.1 µM in the assay with MCF7 breast; 67.6 µM in the assay on SF-268 CNS. The TGI with SN12C renal worked out at 71.3 µM; in the assay on SR leukemia it was 27.9 µM.

For the compound `CN(CC(=O)O)Cc1c[nH]c2ccccc12`, the TGI in the assay on A498 renal, with HOP-62 NSCLC, in the assay on MALME-3M melanoma, with MCF7 breast, in the assay on SF-268 CNS and in the assay with SN12C renal was more than 100 µM each time. Also, in the assay on SR leukemia, the TGI is more than 100 µM.

As for `COc1ccc2c(c1)cn1c3ccc(OC)cc3[nH]c(=O)c21`, the GI50 was less than 0.0258 µM with A498 renal; less than 0.0188 µM with HCC-2998 colon; less than 0.0252 µM with HOP-62 NSCLC; less than 0.0229 µM in the assay on SF-268 CNS; less than 0.0232 µM in the assay with SN12C renal; less than 0.01 µM in the assay with SR leukemia. The TGI came out at 0.0679 µM with HCC-2998 colon; 1.66 µM in the assay with HOP-62 NSCLC; 2.75 µM in the assay on MALME-3M melanoma; 1.47 µM in the assay on SF-268 CNS; 1.65 µM in the assay on SN12C renal; 1.1 µM in the assay on SR leukemia.

On to `Cc1nc(N(C)C)nc(-c2cccc(-c3ccn(CCN(C)C)n3)c2)c1C`, for which the GI50 with A498 renal is 0.628 µM; in the assay on HCC-2998 colon, more than 20 µM; in the assay with HOP-62 NSCLC, more than 20 µM; with MCF7 breast it was more than 20 µM; with SF-268 CNS, more than 20 µM; in the assay on SN12C renal, more than 20 µM. The GI50 in the assay on SR leukemia was more than 20 µM. For the same compound, the TGI with A498 renal, in the assay on HCC-2998 colon, in the assay with HOP-62 NSCLC, in the assay on MCF7 breast, in the assay on SF-268 CNS and in the assay with SN12C renal was more than 20 µM throughout. The compound also displayed a TGI in the assay on SR leukemia of more than 20 µM.
